From publication PMC9510668 (Frontiers in Pharmacology, 2022)
pIC50, pKi: −log10 of the molar value. Read-outs that look alike come from different tables or passages of the source.

Experiments:
[1] = Effect of NaTC (bile salt) concentration on solubility; assay type: physicochemical; conditions: for solubility at 2 h: pH 5.5, read-out: Solubility at Fasted state
Description: After incubation of 2 h, 1 ml aliquot of each sample was withdrawn from the tube. The samples were filtered using a 0.22 μm filter, the first 0.8 ml was discarded, and the remaining 0.2 ml was analyzed by the HPLC. The specific experiments containing different conditions are as follows: • i) Solubility testing in simulated fasted and fed media
In this experiment, a final pH of 5.5 was used, representing a mean front luminal pH at fed state.

[2] = system: OATP1B1; conditions: ref Xu et al., 2010; cited from earlier work
[3] = system: P-gp; design: method as in Minocha et al., 2012; Boudou-Rouquette et al., 2016; conditions: in vitro; ref Minocha et al., 2012; Boudou-Rouquette et al., 2016; cited from earlier work
[4] = system: CYP3D6; conditions: ref Food and Drug Administration, 2009; Yamada et al., 2020; cited from earlier work
[5] = system: UGT1A1; conditions: ref Xu et al., 2010; cited from earlier work
[6] = system: OCT1; design: method as in Ellawatty et al., 2018; conditions: ref Ellawatty et al., 2018; cited from earlier work
[7] = system: MATE1; design: method as in Sauzay et al., 2016; conditions: ref Sauzay et al., 2016; cited from earlier work
[8] = system: BCRP1; assay: BCRP1 efflux transport; assay type: in vitro ADME; conditions: calculated from literature data, PAZ 5 μM, 60-120 min; ref Minocha et al., 2012
[9] = system: CYP2B6; conditions: ref Food and Drug Administration, 2009; Yamada et al., 2020; cited from earlier work
[10] = system: CYP3A4; conditions: 2020, cited from earlier work
[11] = system: MATE2-K; design: method as in Sauzay et al., 2016; conditions: ref Sauzay et al., 2016; cited from earlier work
[12] = ref Food and Drug Administration, 2009, cited from earlier work
[13] = system: OCT2; design: method as in Sauzay et al., 2016; conditions: ref Sauzay et al., 2016; cited from earlier work
[14] = cited from earlier work; for Solubility: ref Herbrink et al., 2018; for LogP: 2022

Increase of solubility with NaTC ([1]; 15 mM compared with 30 mM NaTC): about 4 fold
solubility at 2 h ([1]; biorelevant medium with sodium taurocholate (NaTC), 37 °C, pH 5.5, fassgf or other biorelevant, thermodynamic from solid, NaTC 3.75 mM): 1.51 µg/mL
solubility at 2 h ([1]; biorelevant medium with sodium taurocholate (NaTC), 37 °C, pH 5.5, fassgf or other biorelevant, thermodynamic from solid, NaTC 15 mM): 6.93 µg/mL
solubility at 2 h ([1]; biorelevant medium with sodium taurocholate (NaTC), 37 °C, pH 5.5, fassgf or other biorelevant, thermodynamic from solid, NaTC 30 mM): 27.9 µg/mL
solubility at 2 h ([1]; biorelevant medium with sodium taurocholate (NaTC), pH 5.5, NaTC 7.5 mM): 3.02 µg/mL
solubility at 2 h ([1]; medium with 0 mM NaTC, 37 °C, pH 5.5, fassgf or other biorelevant, thermodynamic from solid, NaTC 0 mM): 0.36 µg/mL
BCRP1 Vmax [8]: 2.5 pmol/min
Compound: Cc1ccc(Nc2nccc(N(C)c3ccc4c(C)n(C)nc4c3)n2)cc1S(N)(=O)=O [PAZ, pazopanib]
pIC50 [2]: 6.10
Substrate for efflux transporter P-gp [3]: weak substrate
Inhibitor of CYP3D6 [4]: weak inhibitor
pIC50 [5]: 5.92
Km [6]: 3.47 µM
OCT1 Vmax [6]: 530 pmol/min/mg protein
pKi [7]: 5.77
Inducer of CYP2B6 [9]: moderate inducer
Inducer of CYP3A4 ([10]; ref Food and Drug Administration, 2009, Yamada et al.): moderate inducer
Emax CYP3A4, maximum inductive effect ([10]; ref Yamada et al.): 2.43 µM
pKi [11]: 5.48
Incidence of high blood pressure ([12]; Ctrough above 32 μg/ml): ~80%
Probability of ALT elevation ([12]; Ctrough above approximately 56 μg/ml): ~20%
Cmax threshold of clinical exposure-toxicity [12]: less than 56 μg/ml
Ctrough needed for sufficient clinical response [12]: above 15 μg/ml
Ctrough threshold of clinical exposure-toxicity [12]: < 32 µg/mL
pKi [13]: 5.52
Solubility ([14]; above pH 4.0): practically insoluble
Solubility ([14]; pH = 1.0): very slight solubility
Biopharmaceutics Classification System (BCS) class ([14]; ref Evaluation, 1997): class II
LogP ([14]; ref Krens et al.): 3.33
LogP ([14]; ref PMDA): 3.65
